According to US9962350B2, “Agent for improving normal development rate of fertilized eggs” (SBI Pharmaceuticals Co., Ltd., priority 2014, dated 2018):

Legend:
[1] = tested on: C57BL/6J fertilized eggs (natural mating); experiment: Low-temperature in vitro culture of natural mating-derived fertilized eggs in KSOM or mWM with ALA; embryo development; type: cell-based, mouse; conditions: 35° C.
Description: According to a routine method of controlled ovarian hyperstimulation, 5 U (units) of equine chorionic gonadotropin (serum gonadotropin) (ASKA Pharmaceutical Co., Ltd.) were intraperitoneally administered to each female mouse of the C57BL/6J lineage (4 weeks old to 6 weeks old). 45 to 48 hours later, 5 U (units) of gonadotropin (human chorionic gonadotropin) (ASKA Pharmaceutical Co., Ltd.) were intraperitoneally administered thereto. Immediately after the administration of gonadotropin, each female mouse was mated with each male mouse of the C57BL/6J lineage. In the next morning, the oviducts were recovered into physiological saline (0.9% (w/v) NaCl) from the female mice that were able to be confirmed to have a vaginal plug. The oviducts were perfused with KSOM or mWM (both were purchased from ARK Resource Co., Ltd., http://www.ark-resource.co.jp/seihin/cryopreservation-liquid/) containing hyaluronidase (approximately 300 μg/ml, Sigma-Aldrich Corp.). After removal of cumulus cells from the obtained fertilized eggs, the fertilized eggs were recovered. In order to remove hyaluronidase, the fertilized eggs were washed with each medium (KSOM or mWM) and maintained in KSOM or mWM (ARK Resource Co., Ltd.) in an incubator of 37° C. and 5% CO2 until the fertilized eggs were recovered from all of the female mice. These two media used are typical media for use in mouse embryo culture. KSOM is a typical low glucose-containing medium, whereas mWM is a high glucose-containing medium.
20 to 50 of the recovered fertilized eggs were transferred into a drop (covered with mineral oil (Sigma-Aldrich Corp.)) consisting of 100 μl of ALA-unsupplemented or ALA-supplemented (1 μM or 3 μM) medium (KSOM or mWM). Subsequently, the fertilized eggs were cultured under two culture conditions: a condition of 37° C. and 5% CO2 and a condition of 35° C. and 5% CO2. The number of 2-cell eggs was counted 24 hours after the fertilized egg harvest, and the number of blastocysts was counted 96 hours thereafter. The development rate was evaluated in the same way as in Example 1. The results about KSOM are shown in Tables 8 to 10 and FIGS. 5 and 6. The results about mWM are shown in Tables 11 to 13 and FIGS. 7 and 8.

[2] = tested on: fertilized eggs obtained by the mating between female mice of the BDF2 lineage and male mice of the BDF1 lineage; experiment: In vitro culture of natural mating-derived fertilized eggs (BDF2 females x BDF1 males) with ALA; embryo development; type: cell-based, mouse; conditions: 1 μM ALA
Description: Aside therefrom, a drop of 100 μL of M16 medium covered with mineral oil (manufactured by Sigma-Aldrich Corp.) and supplemented with ALA hydrochloride (manufactured by SBI Pharmaceuticals Co., Ltd.) at a final concentration of 0 μM (control), 0.1 μM, 0.5 μM, or 1 μM was prepared in a 35 mm Petri dish and left standing at 37° C. in a CO2 incubator. 29 or 30 of the cumulus cell-free fertilized eggs were transferred to the resulting drop and cultured in vitro at 37° C. in a CO2 incubator.
After a lapse of 24 hours, 48 hours, 72 hours, and 96 hours from the start of the in vitro culture (0 hours) in the drop, the developmental stage of each embryo was determined by observation under a stereoscopic microscope, and the number of embryos whose development progressed normally and change in development rate were calculated. Specifically, the number of 2-cell eggs 24 hours after the start of the culture, the number of 3-cell, 4-cell, and 8-cell eggs 48 hours thereafter, the number of morulae and blastocysts 72 hours thereafter, and the number of blastocysts 96 hours thereafter were counted as embryos whose development progressed normally at each stage. The development rate with the number of fertilized eggs (0 hours) defined as 100% is shown in Table 3 and the graph of FIG. 1. For the evaluation of the development rate, the percentage of the number of embryos whose development progressed normally 24 hours, 48 hours, 72 hours, and 96 hours after the start of the culture was calculated with the number of fertilized eggs (0 hours) defined as 100%, and used as a normal development rate. Because of the natural mating, the number of recovered fertilized eggs (0 hours) includes unfertilized eggs to some extent, and there is the possibility that the content of unfertilized eggs varies accidentally among fertilized eggs (0 hours) populations distributed to the respective condition groups even if the fertilized eggs (0 hours) populations have been recovered in the same experiment. The development rate calculated with the number of 2-cell embryos 24 hours postfertilization defined as 100% was calculated in order to eliminate the influence of the content of unfertilized eggs that varies accidentally among the respective condition groups. In short, in order to calculate the development rate on the basis of the number of eggs that reliably started embryo development, the development rate with the number of 2-cell embryos 24 hours postfertilization defined as 100% is shown in Table 4 and the graph of FIG. 2. The results of each test group were statistically analyzed by the square test (chi-square test) with a statistically significant difference of p<0.01 (**) and p<0.05 (*).
The study was conducted in the same way as in Example 1 except that: the female mice used to harvest fertilized eggs were female mice of the BDF2 lineage (5 to 24 weeks old, body weight: 16 to 25 g) obtained by the mating between females and males of the BDF1 lineage (F1 of C57BL/6 females×DBA/2 males); the male mice used for mating were male mice of the BDF1 lineage (F1 of C57BL/6 females×DBA/2 males) (46 to 52 weeks old, body weight: 30 to 45 g); and 1 μM ALA was studied. The results are shown in Tables 5 to 7 below and FIGS. 3 and 4.

[3] = 1 μM ALA, mWM, 96 hr (blastocysts)
[4] = 3 μM ALA, mWM, 96 hr (blastocysts)

NCC(=O)CCC(=O)O [ALA, 5-aminolevulinic acid]
The number of developed embryos in KSOM ([1]; 1 μM ALA, 24 hr): 39
development rate with the number of fertilized eggs (0 hr) in KSOM defined as 100% ([1]; 1 μM ALA, 24 hr): 67%
The number of developed embryos in KSOM ([1]; 1 μM ALA, 48 hr): 23
development rate with the number of 2-cell embryos 24 hours postfertilization in KSOM defined as 100% ([1]; 1 μM ALA, 48 hr): 59%
development rate with the number of fertilized eggs (0 hr) in KSOM defined as 100% ([1]; 1 μM ALA, 48 hr): 40%
The number of developed embryos in KSOM ([1]; 1 μM ALA, 96 hr): 6
development rate with the number of 2-cell embryos 24 hours postfertilization in KSOM defined as 100% ([1]; 1 μM ALA, 96 hr (blastocysts)): 15%
development rate with the number of fertilized eggs (0 hr) in KSOM defined as 100% ([1]; 1 μM ALA, 96 hr (blastocysts)): 10%
The number of developed embryos in mWM ([1]; 1 μM ALA, mWM, 24 hr): 59
development rate with the number of fertilized eggs (0 hr) in mWM defined as 100% ([1]; 1 μM ALA, mWM, 24 hr): 50%
The number of developed embryos in mWM ([1]; 1 μM ALA, mWM, 48 hr): 48
development rate with the number of 2-cell embryos 24 hours postfertilization in mWM defined as 100% ([1]; 1 μM ALA, mWM, 48 hr): 81%
development rate with the number of fertilized eggs (0 hr) in mWM defined as 100% ([1]; 1 μM ALA, mWM, 48 hr): 39%
elevation of development rate to blastocysts vs control (in words) ([1]; 1 μM ALA, mWM, 96 hours (Tables 12 and 13)): no significant elevation
The number of developed embryos in mWM ([1]; 1 μM ALA, mWM, 96 hr): 27
development rate with the number of 2-cell embryos 24 hours postfertilization in mWM defined as 100% [1, 3]: 46%
development rate with the number of fertilized eggs (0 hr) in mWM defined as 100% [1, 3]: 22%
The number of developed embryos in mWM ([1]; 3 μM ALA, mWM, 24 hr): 62
development rate with the number of fertilized eggs (0 hr) in mWM defined as 100% ([1]; 3 μM ALA, mWM, 24 hr): 50%
The number of developed embryos in mWM ([1]; 3 μM ALA, mWM, 48 hr): 62
development rate with the number of 2-cell embryos 24 hours postfertilization in mWM defined as 100% ([1]; 3 μM ALA, mWM, 48 hr): 100%
development rate with the number of fertilized eggs (0 hr) in mWM defined as 100% ([1]; 3 μM ALA, mWM, 48 hr): 50%
The number of developed embryos in mWM ([1]; 3 μM ALA, mWM, 96 hr): 40
development rate with the number of 2-cell embryos 24 hours postfertilization in mWM defined as 100% [1, 4]: 65%
development rate with the number of fertilized eggs (0 hr) in mWM defined as 100% [1, 4]: 32%
The number of developed embryos ([2]; 24 hr): 41
development rate with the number of fertilized eggs (0 hr) defined as 100% ([2]; 24 hr): 82%
The number of developed embryos ([2]; 48 hr): 41
development rate with the number of 2-cell embryos 24 hours postfertilization defined as 100% ([2]; 48 hr): 100%
development rate with the number of fertilized eggs (0 hr) defined as 100% ([2]; 48 hr): 82%
The number of developed embryos ([2]; 72 hr): 40
development rate with the number of fertilized eggs (0 hr) defined as 100% ([2]; 72 hr): 80%
The number of developed embryos ([2]; 96 hr): 40
development rate with the number of fertilized eggs (0 hr) defined as 100% ([2]; 96 hr): 80%
development rate as compared with the ALA-unsupplemented control (in words) ([2]; number of fertilized eggs (0 hours) defined as 100%): elevate the development rate
